Data as given in ChEMBL document CHEMBL5465560, “Selectivity Literature for EUbOPEN Chemogenomic Library” (2024).

Key:
[1] = molecular target: Serine/threonine-protein kinase 32B (Homo sapiens) (UniProt Q9NY57); assay: Selectivity interaction (KinomeScan (DiscoverX)) EUB0000655a STK32B; conditions: at 10 µM
[2] = molecular target: Mitogen-activated protein kinase 7 (Homo sapiens) (UniProt Q13164); assay: Selectivity interaction (KinomeScan (DiscoverX)) EUB0001079a MAPK7; conditions: at 1 µM
[3] = molecular target: CDK3/cyclin E (Homo sapiens) (UniProt P24864+O96020+Q00526); assay: Selectivity interaction (Millipore kinase profiler) EUB0000124b CDK3; type: protein-complex assay; conditions: at 10 µM
[4] = molecular target: T1, Tyrosine-protein kinase ZAP-70 (Homo sapiens) (UniProt P43403); assay: Selectivity interaction (KinomeScan (DiscoverX)) EUB0000618a ZAP70; conditions: at 10 µM
T1 sequence (whole entry): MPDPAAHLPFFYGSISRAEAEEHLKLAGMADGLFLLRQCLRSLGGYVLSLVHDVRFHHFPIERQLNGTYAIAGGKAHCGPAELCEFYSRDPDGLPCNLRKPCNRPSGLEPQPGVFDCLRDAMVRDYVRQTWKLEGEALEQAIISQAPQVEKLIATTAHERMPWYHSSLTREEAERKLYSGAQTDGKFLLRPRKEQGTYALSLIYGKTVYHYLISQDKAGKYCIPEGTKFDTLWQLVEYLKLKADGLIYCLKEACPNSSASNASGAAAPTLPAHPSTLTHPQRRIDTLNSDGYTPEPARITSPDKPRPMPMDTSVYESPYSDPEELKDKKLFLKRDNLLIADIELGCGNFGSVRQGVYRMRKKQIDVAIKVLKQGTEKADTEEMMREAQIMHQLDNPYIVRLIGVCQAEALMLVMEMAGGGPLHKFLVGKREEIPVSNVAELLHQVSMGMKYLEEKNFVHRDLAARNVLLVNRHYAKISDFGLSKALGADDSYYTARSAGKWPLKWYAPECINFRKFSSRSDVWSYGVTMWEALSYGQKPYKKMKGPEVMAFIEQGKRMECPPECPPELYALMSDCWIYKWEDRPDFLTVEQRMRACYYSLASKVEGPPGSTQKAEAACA

[5] = molecular target: Cyclin-dependent kinase 5/CDK5 activator 1 (Homo sapiens) (UniProt Q00535+Q15078); assay: Selectivity interaction (SelectScreen profiling (Invitrogen)) EUB0000607a CDK5; type: protein-complex assay; conditions: at 2 µM
[6] = molecular target: Transient receptor potential cation channel subfamily M member 6 (Homo sapiens) (UniProt Q9BX84); assay: Selectivity interaction (KinomeScan (DiscoverX)) EUB0001619a TRPM6; conditions: at 1 µM
[7] = molecular target: T2, Ephrin type-B receptor 6 (Homo sapiens) (UniProt O15197); assay: Selectivity interaction (KinomeScan (DiscoverX)) EUB0000045b EPHB6
T2 sequence (whole entry): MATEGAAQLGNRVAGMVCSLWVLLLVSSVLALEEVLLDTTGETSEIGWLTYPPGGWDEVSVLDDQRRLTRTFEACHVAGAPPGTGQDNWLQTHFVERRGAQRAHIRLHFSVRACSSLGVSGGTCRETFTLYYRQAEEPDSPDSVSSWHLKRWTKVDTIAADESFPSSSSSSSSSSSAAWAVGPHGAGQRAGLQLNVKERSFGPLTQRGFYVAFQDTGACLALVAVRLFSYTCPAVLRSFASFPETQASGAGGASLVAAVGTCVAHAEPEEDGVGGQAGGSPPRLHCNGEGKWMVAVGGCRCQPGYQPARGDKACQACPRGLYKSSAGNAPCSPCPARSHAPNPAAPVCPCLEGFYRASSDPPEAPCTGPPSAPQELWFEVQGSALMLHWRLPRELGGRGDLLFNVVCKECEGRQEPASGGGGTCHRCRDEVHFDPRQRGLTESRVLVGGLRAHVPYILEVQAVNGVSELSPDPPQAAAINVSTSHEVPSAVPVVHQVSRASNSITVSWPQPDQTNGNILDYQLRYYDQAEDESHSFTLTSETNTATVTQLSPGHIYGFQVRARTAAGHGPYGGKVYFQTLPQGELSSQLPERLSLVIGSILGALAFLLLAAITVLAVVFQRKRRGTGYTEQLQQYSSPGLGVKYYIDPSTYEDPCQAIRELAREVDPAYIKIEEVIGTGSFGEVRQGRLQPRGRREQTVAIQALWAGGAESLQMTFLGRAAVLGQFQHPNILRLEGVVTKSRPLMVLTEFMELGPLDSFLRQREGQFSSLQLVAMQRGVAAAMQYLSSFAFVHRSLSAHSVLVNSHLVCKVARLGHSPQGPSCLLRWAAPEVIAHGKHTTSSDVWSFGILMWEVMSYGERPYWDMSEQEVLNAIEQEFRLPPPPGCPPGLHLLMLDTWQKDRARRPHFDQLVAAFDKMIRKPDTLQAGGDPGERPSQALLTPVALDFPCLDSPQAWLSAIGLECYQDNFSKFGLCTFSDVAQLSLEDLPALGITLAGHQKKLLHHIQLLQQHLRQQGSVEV

[8] = molecular target: Cyclin-dependent kinase 17 (Homo sapiens) (UniProt Q00537); assay: Selectivity interaction (KinomeScan (DiscoverX)) EUB0000045b CDK17
[9] = molecular target: T3, Interleukin-1 receptor-associated kinase 3 (Homo sapiens) (UniProt Q9Y616); assay: Selectivity interaction (ActivX KiNativ screen (kinase selectivity in THP-1 cell lysates)) EUB0000639a IRAK3; type: subcellular; conditions: lysate, at 1 µM
T3 sequence (whole entry): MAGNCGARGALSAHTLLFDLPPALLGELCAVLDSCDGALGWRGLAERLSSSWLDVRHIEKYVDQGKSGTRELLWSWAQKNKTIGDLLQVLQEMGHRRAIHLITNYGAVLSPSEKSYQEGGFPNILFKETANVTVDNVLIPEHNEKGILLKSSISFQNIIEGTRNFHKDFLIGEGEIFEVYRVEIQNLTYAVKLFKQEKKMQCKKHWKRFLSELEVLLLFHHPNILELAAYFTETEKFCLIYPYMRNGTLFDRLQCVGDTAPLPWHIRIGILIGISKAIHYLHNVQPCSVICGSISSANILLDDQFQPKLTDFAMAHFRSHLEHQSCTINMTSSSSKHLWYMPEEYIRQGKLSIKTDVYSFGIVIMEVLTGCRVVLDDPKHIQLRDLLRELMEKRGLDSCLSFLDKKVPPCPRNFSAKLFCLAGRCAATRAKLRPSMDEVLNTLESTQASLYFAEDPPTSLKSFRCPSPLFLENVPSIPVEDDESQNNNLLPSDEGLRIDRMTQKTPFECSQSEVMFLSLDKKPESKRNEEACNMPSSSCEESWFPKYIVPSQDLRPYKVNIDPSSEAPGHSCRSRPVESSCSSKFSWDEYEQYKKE

[10] = molecular target: Cyclin-dependent kinase 9 (Homo sapiens, UniProt P50750); assay: Selectivity interaction (KinomeScan (DiscoverX)) EUB0000229b CDK9; conditions: at 10 µM
[11] = system: Hepatocyte growth factor receptor (Homo sapiens), P08581 [D1228H]; assay: Selectivity interaction (LanthaScreen Eu Kinase Binding Assay) EUB0001632a MET; conditions: at 10 µM
[12] = molecular target: Mitogen-activated protein kinase 14 (Homo sapiens, UniProt Q16539); assay: Selectivity interaction (Kinase panel (Z-LYTE Assay)) EUB0001632a MAPK14; conditions: at 10 µM
Chain of Mitogen-activated protein kinase 14 (Q16539 whole entry): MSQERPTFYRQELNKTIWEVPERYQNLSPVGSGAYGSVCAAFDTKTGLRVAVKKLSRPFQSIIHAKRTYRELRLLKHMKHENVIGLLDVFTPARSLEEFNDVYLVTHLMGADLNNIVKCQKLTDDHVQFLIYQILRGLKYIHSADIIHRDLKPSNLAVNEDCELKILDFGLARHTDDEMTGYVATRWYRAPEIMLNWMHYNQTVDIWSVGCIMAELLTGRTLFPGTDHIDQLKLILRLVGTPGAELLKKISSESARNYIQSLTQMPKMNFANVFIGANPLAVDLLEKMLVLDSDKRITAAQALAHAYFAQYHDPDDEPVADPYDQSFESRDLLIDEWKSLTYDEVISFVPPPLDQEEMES

Chain of Cyclin-dependent kinase 17 (Homo sapiens) (Q00537 whole entry, looked up): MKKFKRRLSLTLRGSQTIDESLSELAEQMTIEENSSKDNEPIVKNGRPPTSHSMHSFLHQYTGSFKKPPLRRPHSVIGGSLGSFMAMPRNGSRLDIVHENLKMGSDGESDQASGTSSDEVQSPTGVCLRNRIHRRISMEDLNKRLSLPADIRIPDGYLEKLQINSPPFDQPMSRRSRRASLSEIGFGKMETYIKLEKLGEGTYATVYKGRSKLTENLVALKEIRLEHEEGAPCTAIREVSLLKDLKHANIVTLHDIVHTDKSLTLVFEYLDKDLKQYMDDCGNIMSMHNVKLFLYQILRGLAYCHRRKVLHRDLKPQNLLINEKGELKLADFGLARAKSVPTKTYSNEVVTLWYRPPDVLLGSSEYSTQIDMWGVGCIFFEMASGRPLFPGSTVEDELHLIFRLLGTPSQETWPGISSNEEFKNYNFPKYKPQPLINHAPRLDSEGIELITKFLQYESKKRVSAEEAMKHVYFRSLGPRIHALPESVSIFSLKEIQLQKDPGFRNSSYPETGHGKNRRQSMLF
Chain of Serine/threonine-protein kinase 32B (Homo sapiens) (Q9NY57 whole entry): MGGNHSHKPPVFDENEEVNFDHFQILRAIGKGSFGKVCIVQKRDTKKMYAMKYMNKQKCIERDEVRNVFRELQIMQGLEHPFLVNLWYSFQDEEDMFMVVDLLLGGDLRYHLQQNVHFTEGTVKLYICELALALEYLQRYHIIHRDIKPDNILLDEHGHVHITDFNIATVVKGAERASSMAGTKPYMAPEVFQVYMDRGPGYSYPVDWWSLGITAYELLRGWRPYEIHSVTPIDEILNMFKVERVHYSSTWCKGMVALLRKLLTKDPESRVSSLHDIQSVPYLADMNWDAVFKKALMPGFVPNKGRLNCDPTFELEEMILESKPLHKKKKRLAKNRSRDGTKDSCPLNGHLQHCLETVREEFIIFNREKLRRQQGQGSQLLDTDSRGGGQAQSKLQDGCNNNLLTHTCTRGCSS
Chain of Cyclin-dependent kinase 9 (P50750 whole entry): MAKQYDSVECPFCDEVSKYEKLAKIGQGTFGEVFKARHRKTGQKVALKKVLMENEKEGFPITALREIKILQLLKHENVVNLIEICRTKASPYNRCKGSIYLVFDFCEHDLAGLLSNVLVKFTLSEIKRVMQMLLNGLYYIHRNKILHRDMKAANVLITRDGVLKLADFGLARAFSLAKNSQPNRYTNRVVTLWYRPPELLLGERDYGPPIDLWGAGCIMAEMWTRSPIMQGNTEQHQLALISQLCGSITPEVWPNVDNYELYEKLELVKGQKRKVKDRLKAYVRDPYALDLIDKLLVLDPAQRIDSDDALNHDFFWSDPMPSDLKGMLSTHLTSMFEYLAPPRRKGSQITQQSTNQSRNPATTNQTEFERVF
Chain of Hepatocyte growth factor receptor (Homo sapiens), P08581 [D1228H] (P08581 whole entry D1228H): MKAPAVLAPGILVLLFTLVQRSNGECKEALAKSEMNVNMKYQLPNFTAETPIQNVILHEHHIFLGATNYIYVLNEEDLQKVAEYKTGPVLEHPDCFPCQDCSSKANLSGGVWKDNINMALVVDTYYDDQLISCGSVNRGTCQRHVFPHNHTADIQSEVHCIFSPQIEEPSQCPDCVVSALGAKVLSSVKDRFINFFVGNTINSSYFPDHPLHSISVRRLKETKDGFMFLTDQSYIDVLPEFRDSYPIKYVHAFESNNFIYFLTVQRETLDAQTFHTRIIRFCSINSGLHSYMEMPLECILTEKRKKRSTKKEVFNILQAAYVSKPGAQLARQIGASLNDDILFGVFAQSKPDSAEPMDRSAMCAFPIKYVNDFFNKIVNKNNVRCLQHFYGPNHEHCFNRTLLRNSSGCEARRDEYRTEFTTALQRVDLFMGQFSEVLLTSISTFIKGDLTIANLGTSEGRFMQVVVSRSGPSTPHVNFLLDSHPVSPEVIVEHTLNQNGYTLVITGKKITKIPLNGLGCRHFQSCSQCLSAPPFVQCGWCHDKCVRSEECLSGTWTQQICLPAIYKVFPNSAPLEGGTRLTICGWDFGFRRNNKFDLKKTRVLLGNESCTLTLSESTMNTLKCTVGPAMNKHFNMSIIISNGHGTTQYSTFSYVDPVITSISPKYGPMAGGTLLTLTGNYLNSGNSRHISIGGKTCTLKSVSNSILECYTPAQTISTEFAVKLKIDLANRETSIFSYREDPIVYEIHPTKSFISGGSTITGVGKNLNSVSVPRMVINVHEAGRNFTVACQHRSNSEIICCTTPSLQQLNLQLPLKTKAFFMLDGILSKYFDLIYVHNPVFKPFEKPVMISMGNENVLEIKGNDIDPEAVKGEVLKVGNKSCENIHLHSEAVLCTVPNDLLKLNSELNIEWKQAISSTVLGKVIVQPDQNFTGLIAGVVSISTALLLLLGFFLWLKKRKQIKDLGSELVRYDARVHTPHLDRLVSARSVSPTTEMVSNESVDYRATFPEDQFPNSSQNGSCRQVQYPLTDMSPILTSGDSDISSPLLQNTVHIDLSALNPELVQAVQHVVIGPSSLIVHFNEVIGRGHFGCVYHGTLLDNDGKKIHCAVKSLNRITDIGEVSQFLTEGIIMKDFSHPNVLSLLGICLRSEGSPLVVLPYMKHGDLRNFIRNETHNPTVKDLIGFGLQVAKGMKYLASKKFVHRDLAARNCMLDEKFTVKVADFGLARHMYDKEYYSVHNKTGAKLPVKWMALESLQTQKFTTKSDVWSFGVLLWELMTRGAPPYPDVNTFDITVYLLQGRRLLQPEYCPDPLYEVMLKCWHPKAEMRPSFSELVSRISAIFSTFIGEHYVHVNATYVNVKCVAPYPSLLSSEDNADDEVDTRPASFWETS
Chain of Transient receptor potential cation channel subfamily M member 6 (Homo sapiens) (Q9BX84 whole entry): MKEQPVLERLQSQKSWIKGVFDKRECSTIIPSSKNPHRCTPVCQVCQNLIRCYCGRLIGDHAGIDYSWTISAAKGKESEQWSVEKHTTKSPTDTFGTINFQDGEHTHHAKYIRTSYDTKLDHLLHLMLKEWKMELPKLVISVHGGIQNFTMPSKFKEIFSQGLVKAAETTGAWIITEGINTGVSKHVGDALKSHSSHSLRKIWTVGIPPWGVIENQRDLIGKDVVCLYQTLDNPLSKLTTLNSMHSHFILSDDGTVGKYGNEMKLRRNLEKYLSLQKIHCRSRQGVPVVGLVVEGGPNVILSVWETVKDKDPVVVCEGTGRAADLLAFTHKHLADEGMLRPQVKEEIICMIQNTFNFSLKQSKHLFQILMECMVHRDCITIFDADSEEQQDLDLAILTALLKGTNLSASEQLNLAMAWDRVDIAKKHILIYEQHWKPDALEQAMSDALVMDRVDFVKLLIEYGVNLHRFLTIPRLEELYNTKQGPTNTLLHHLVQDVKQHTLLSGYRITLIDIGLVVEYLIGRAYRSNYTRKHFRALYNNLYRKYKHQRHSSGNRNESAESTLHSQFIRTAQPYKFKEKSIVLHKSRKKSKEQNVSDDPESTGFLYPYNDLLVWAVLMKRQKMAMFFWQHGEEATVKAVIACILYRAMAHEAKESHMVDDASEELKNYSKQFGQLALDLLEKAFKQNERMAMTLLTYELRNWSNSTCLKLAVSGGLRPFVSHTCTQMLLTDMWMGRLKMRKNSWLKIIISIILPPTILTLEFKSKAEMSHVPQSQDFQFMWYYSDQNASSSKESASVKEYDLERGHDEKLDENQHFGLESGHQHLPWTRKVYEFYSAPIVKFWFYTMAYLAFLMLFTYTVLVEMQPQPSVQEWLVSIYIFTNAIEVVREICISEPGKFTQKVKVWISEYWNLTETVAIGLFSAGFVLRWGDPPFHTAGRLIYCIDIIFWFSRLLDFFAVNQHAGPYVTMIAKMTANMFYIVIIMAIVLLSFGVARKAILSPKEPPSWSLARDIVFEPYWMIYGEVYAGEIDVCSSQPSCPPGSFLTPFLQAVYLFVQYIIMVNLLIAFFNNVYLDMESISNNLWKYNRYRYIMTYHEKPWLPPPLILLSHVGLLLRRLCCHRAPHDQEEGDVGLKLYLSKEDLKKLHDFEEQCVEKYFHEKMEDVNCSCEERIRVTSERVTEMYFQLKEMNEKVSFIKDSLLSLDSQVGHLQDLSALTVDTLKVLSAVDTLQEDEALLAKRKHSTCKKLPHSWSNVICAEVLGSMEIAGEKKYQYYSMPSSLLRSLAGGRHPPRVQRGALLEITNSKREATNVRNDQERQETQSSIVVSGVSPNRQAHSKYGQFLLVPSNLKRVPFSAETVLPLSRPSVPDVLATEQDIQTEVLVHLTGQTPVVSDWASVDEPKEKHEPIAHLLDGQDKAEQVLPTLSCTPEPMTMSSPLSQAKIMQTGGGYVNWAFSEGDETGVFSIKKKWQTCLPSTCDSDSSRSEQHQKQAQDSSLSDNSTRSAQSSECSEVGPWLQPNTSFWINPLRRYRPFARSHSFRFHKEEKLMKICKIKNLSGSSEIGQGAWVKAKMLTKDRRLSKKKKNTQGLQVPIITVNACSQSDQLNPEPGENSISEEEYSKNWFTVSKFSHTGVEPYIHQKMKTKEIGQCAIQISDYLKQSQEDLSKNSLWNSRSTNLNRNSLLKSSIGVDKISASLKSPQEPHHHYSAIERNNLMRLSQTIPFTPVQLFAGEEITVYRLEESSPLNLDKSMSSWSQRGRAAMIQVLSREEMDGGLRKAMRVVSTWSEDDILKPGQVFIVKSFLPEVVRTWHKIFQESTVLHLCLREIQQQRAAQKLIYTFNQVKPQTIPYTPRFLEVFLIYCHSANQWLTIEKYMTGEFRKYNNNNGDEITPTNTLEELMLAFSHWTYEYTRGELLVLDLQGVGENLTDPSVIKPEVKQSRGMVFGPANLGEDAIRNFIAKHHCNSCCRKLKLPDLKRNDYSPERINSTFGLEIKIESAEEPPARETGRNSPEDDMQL

Question: CN(C)CCOc1ccc(-c2nc(-c3ccncc3)c(-c3ccc4c(c3)CC/C4=N\O)[nH]2)cc1 was tested. Which % of control [1] did it give?
Answer: The % of control was 85%.

Question: Which % of control [2] does the source give for Nc1cnc(N2CCc3cc(S(=O)(=O)Nc4c(F)cc(Cl)cc4F)cc(N4CCCC4=O)c32)nc1 [TP-020n] here?
Answer: Its % of control is 100%.

Question: How did the % of control [3] turn out when CC(=O)Nc1cccc(-n2c(=O)n(C3CC3)c(=O)c3c(Nc4ccc(I)cc4F)n(C)c(=O)c(C)c32)c1 was run?
Answer: The % of control was 101%.

Question: Which % of control [4] does the source give for O[C@H]1CC[C@H](Nc2ncc3nc(Nc4c(F)cc(F)cc4F)n([C@H]4CCOC4)c3n2)CC1 here?
Answer: The % of control was 100%.

Question: With CNC(=O)Nc1ccc(-c2nc(N3CC4CCC(C3)O4)c3cnn(C4CCC5(CC4)OCCO5)c3n2)cc1 as the compound, how does the % of inhibition [5] read?
Answer: Its % of inhibition is -4%.

Question: How did the % of control [6] turn out when N#Cc1cccc(-c2c[nH]c3ncnc(N4CCOCC4)c23)c1 was run?
Answer: Its % of control is 100%.

Question: What does the source list for C=CC(=O)Nc1cc(-n2c(=O)ccc3cnc4ccc(-c5ccc(NS(C)(=O)=O)cc5)cc4c32)ccc1C?
Answer: % of control ([7]; at 1 µM): 90%; % of control ([7]; at 10 µM): 85%; % of control ([8]; at 1 µM): 100%; % of control ([8]; at 10 µM): 95%

Question: With CC[C@@H]1[C@H](F)C(=O)N[C@@H]1COc1nccc2cc(C(N)=O)c(OC)cc12 [ZIMLOVISERTIB] as the compound, how does the % of inhibition [9] read?
Answer: The % of inhibition was 73%.

Question: With COc1cc(N(C)c2ccnc3ccc(C(F)(F)F)cc23)cc(OC)c1OC as the compound, how does the % binding [10] read?
Answer: Its % binding is 81%.

Question: With Cn1cc(-n2cnc3c(NCc4nc5cc(Cl)c(Cl)cc5[nH]4)nc(N4CCOCC4)nc32)cn1 as the compound, how does the % of inhibition [11] read?
Answer: Its % of inhibition is -208%.

Question: And the % of control [12]?
Answer: The % of control was -3.84%.
